Results on 18 molecules are retold here after patent US20250206738A1, “WRN INHIBITORS” (Nimbus Wadjet, Inc., priority 2023, published 2025).

Structures are written as SMILES.

Assay [1] concerns p21 induction in HCT 116 cells. The assay can be described thus: p21 induction in cells (In-Cell Western, p21/GAPDH ratio). The note with it: Homo sapiens, HCT-116, 24 h, 24 h compound incubation, read-out: P21_EC50. The assay is classed as cell-based. The method in brief: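 p21 and GAPDH signals quantified by In-Cell Western after 24 h compound exposure of HCT 116 cells (11 concentrations, 2-fold steps, usual top 10 μM). Percent activation from p21/GAPDH ratio relative to DMSO (low) and internal WRN inhibitor (high) controls; curve fit gave EC50.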

Assay [2] has as its target T1, human Werner helicase (WRN, Uniprot Q14191, amino acids 517-1235 with L1074F point mutation; WRN-BV08) (Homo sapiens, UniProt Q14191, L1074F).
T1 construct: Uniprot Q14191, amino acids 517-1235 with L1074F point mutation; 8xHis (C, cleaved yes); TEV cleavage site (ENLYFQG) (C, cleaved yes); made in house; host or cells: Sf9 insect cells (baculovirus, pFastBac)
The assay can be described thus: WRN (BV08) ADP-Glo assay. The assay is classed as biochemical. Particulars: WRN-BV08 (aa 517-1235, L1074F); read-out: ADP-Glo_hWRN_IC50. The essentials: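 ADP formed by untagged WRN helicase fragment (aa 517-1235, L1074F; 0.15 nM final) on 0.1 nM DNA duplex with […], 60 min at 25 °C after 15 min compound preincubation, pH 7.5 Bicine buffer. Luminescent ADP-Glo readout; IC50 from 4-parameter fit of % inhibition.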
For orientation: ADP-Glo first removes unused ATP, then detects ADP through luciferase.

T1 sequence (Q14191 with tags, fused parts or gaps L1074F): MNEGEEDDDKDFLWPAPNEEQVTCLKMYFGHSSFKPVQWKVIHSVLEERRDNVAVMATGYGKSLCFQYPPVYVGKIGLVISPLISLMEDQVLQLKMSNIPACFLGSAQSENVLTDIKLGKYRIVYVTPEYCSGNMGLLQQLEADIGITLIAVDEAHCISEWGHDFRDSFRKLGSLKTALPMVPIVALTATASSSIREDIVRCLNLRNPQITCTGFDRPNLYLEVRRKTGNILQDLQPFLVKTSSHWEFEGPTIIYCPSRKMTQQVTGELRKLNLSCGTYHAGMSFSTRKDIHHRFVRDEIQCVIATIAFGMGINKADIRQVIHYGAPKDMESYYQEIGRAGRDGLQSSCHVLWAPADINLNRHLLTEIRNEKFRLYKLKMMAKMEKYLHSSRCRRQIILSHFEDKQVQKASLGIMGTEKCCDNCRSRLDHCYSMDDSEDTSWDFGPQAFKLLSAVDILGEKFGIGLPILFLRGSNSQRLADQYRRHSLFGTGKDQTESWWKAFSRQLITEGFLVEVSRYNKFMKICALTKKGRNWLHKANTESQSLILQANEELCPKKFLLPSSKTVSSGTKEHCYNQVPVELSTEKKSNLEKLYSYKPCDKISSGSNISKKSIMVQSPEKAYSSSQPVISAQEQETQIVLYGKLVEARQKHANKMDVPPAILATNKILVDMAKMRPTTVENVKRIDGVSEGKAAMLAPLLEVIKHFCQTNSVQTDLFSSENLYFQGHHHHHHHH

Take `CCc1c(N2CCN(C(=O)c3c(O)ccc4ncoc34)CC2)c(=O)n2nc(-c3ccnc(OC)c3)nc2n1CC(=O)NC12CC(C3CCC3)(C1)C2` [I-28, N-(3-cyclobutylbicyclo[1.1.1]pentan-1-yl)-2-(5-ethyl-6-(4-(6-hydroxybenzo[d]oxazole-7-carbonyl)piperazin-1-yl)-2-(2-methoxypyridin-4-yl)-7-oxo-[1,2,4]triazolo[1,5-a]pyrimidin-4(7H)-yl)acetamide]: the EC50 in assay [1] is not above 500 nM. Further, the IC50 in assay [2] is not above 5 nM.
The matching figures for `CCc1c(N2CCN(C(=O)c3ncnc(C)c3O)[C@H]3CC[C@@H]32)c(=O)c2cn(-c3ccnc(OC)c3)nc2n1CC(=O)NC12CC(C3CC3)(C1)C2` [I-212, N-(3-cyclopropylbicyclo[1.1.1]pentan-1-yl)-2-(6-ethyl-5-((1S,6S)-5-(5-hydroxy-6-methylpyrimidine-4-carbonyl)-2,5-diazabicyclo[4.2.0]octan-2-yl)-2-(2-methoxypyridin-4-yl)-4-oxo-2,4-dihydro-7H-pyrazolo[3,4-b]pyridin-7-yl)acetamide]: not above 500 nM and 5 to 50 nM.
The matching figures for `CCc1c(N2CCN(C(=O)c3ncnc(C)c3O)CC2)c(=O)c2sc(-c3ccnc(OC)c3)nc2n1CC(=O)NC12CC(C(F)(F)F)(C1)C2` [I-25, 2-(5-ethyl-6-(4-(5-hydroxy-6-methylpyrimidine-4-carbonyl)piperazin-1-yl)-2-(2-methoxypyridin-4-yl)-7-oxothiazolo[4,5-b]pyridin-4(7H)-yl)-N-(3-(trifluoromethyl)bicyclo[1.1.1]pentan-1-yl)acetamide]: more than 5000 nM and 5 to 50 nM.
For `CCc1c(N2CCN(C(=O)c3cccc4ncoc34)CC2)c(=O)n2nc(-c3ccnc(OC)c3)nc2n1CC(=O)NC12CC(C(F)(F)F)(C1)C2` [I-231, 2-(6-(4-(benzo[d]oxazole-7-carbonyl)piperazin-1-yl)-5-ethyl-2-(2-methoxypyridin-4-yl)-7-oxo-[1,2,4]triazolo[1,5-a]pyrimidin-4(7H)-yl)-N-(3-(trifluoromethyl)bicyclo[1.1.1]pentan-1-yl)acetamide], the EC50 in assay [1] is 2000 to 5000 nM. Moreover, the IC50 in assay [2] is 5 to 50 nM.
The matching figures for `CCc1c(N2CCN(C(=O)c3c(O)ccc4ncoc34)CC2)c(=O)c2sc(-c3ccnc(OC)c3)nc2n1CC(=O)NC12CC(C(F)(F)F)(C1)C2` [I-37, 2-(5-ethyl-6-(4-(6-hydroxybenzo[d]oxazole-7-carbonyl)piperazin-1-yl)-2-(2-methoxypyridin-4-yl)-7-oxothiazolo[4,5-b]pyridin-4(7H)-yl)-N-(3-(trifluoromethyl)bicyclo[1.1.1]pentan-1-yl)acetamide]: 500 to 2000 nM and 5 to 50 nM.
Regarding `CCc1c(N2CCN(C(=O)c3ncnc(C)c3O)CC2)c(=O)n2nc(-c3ccnc(OC)c3)nc2n1CCC(=O)NC12CC(C(F)(F)F)(C1)C2` [I-13, 3-(5-ethyl-6-(4-(5-hydroxy-6-methylpyrimidine-4-carbonyl)piperazin-1-yl)-2-(2-methoxypyridin-4-yl)-7-oxo-[1,2,4]triazolo[1,5-a]pyrimidin-4(7H)-yl)-N-(3-(trifluoromethyl)bicyclo[1.1.1]pentan-1-yl)propanamide], the EC50 in assay [1] was more than 5000 nM. Also, the IC50 in assay [2] was more than 500 nM.
As to `CCc1c(N2CCN(C(=O)c3c(O)ccc4ncoc34)CC2)c(=O)n2nc(-c3ccnc(OC)c3)nc2n1CC(=O)NC12CC(C(F)(F)F)(C1)C2` [I-10, 2-(5-ethyl-6-(4-(6-hydroxybenzo[d]oxazole-7-carbonyl)piperazin-1-yl)-2-(2-methoxypyridin-4-yl)-7-oxo-[1,2,4]triazolo[1,5-a]pyrimidin-4(7H)-yl)-N-(3-(trifluoromethyl)bicyclo[1.1.1]pentan-1-yl)acetamide], the EC50 in assay [1] was not above 500 nM. In addition, the IC50 in assay [2] fell in the range of 5 to 50 nM.
For `CCc1c(N2CCN(C(=O)c3ncc4c(c3O)CCO4)CC2)c(=O)n2nc(C3=CCOCC3)nc2n1CC(=O)NC12CC(C3CCC3)(C1)C2` [I-211, N-(3-cyclobutylbicyclo[1.1.1]pentan-1-yl)-2-(2-(3,6-dihydro-2H-pyran-4-yl)-5-ethyl-6-(4-(4-hydroxy-2,3-dihydrofuro[2,3-c]pyridine-5-carbonyl)piperazin-1-yl)-7-oxo-[1,2,4]triazolo[1,5-a]pyrimidin-4(7H)-yl)acetamide] the same measures were 500 to 2000 nM and 5 to 50 nM.
The matching figures for `CCc1c(N2CCN(C(=O)c3ncnc(C)c3O)[C@H]3CC[C@@H]32)c(=O)c2nc(N(C)C)cnc2n1CC(=O)NC12CC(C3CCC3)(C1)C2` [I-226, N-(3-cyclobutylbicyclo[1.1.1]pentan-1-yl)-2-(2-(dimethylamino)-6-ethyl-7-((1S,6S)-5-(5-hydroxy-6-methylpyrimidine-4-carbonyl)-2,5-diazabicyclo[4.2.0]octan-2-yl)-8-oxopyrido[2,3-b]pyrazin-5(8H)-yl)acetamide]: not above 500 nM and 5 to 50 nM.
`CCc1c(N2CCN(C(=O)c3ncnc(C)c3O)CC2)c(=O)n2nc(C3=CCOCC3)nc2n1CC(=O)NC12CC(C(C)C)(C1)C2` [I-234, 2-(2-(3,6-dihydro-2H-pyran-4-yl)-5-ethyl-6-(4-(5-hydroxy-6-methylpyrimidine-4-carbonyl)piperazin-1-yl)-7-oxo-[1,2,4]triazolo[1,5-a]pyrimidin-4(7H)-yl)-N-(3-isopropylbicyclo[1.1.1]pentan-1-yl)acetamide]: in assay [1], the EC50 was in the range of 500 to 2000 nM. Besides, the IC50 in assay [2] was 5 to 50 nM.
For `CCc1c(N2CCN(C(=O)c3c(O)ccc4ncoc34)CC2)c(=O)n2nc(-c3ccnc(OC)c3)nc2n1CC(=O)NC12CC(C(C)C)(C1)C2` [I-35, 2-(5-ethyl-6-(4-(6-hydroxybenzo[d]oxazole-7-carbonyl)piperazin-1-yl)-2-(2-methoxypyridin-4-yl)-7-oxo-[1,2,4]triazolo[1,5-a]pyrimidin-4(7H)-yl)-N-(3-isopropylbicyclo[1.1.1]pentan-1-yl)acetamide] the same measures were not above 500 nM and not above 5 nM.
For `CCc1c(N2CCN(C(=O)c3ncnc(C)c3O)CC2)c(=O)n2nc(C3=CCOCC3)nc2n1CC(=O)NC12CC(C3CC3)(C1)C2` [I-32, N-(3-cyclopropylbicyclo[1.1.1]pentan-1-yl)-2-(2-(3,6-dihydro-2H-pyran-4-yl)-5-ethyl-6-(4-(5-hydroxy-6-methylpyrimidine-4-carbonyl)piperazin-1-yl)-7-oxo-[1,2,4]triazolo[1,5-a]pyrimidin-4(7H)-yl)acetamide], in assay [1], the EC50 was 2000 to 5000 nM. The IC50 in assay [2] lay in the range of 5 to 50 nM.
For `CCc1c(N2CCN(C(=O)c3ncnc(C)c3O)CC2)c(=O)n2nc(-c3ccnc(OC)c3)nc2n1CC(=O)N[C@H]1CC[C@H](C(F)(F)F)CC1` [I-242, 2-(5-ethyl-6-(4-(5-hydroxy-6-methylpyrimidine-4-carbonyl)piperazin-1-yl)-2-(2-methoxypyridin-4-yl)-7-oxo-[1,2,4]triazolo[1,5-a]pyrimidin-4(7H)-yl)-N-((1r,4r)-4-(trifluoromethyl)cyclohexyl)acetamide] the same measures were more than 5000 nM and 100 to 500 nM.
The matching figures for `CCc1c(N2CCN(C(=O)c3cnn(C)c3)CC2)c(=O)n2nc(C3=CCOCC3)nc2n1CC(=O)NC1CC2(C1)CC2F` (stereo not drawn) [I-249, 2-(2-(3,6-dihydro-2H-pyran-4-yl)-5-ethyl-6-(4-(1-methyl-1H-pyrazole-4-carbonyl)piperazin-1-yl)-7-oxo-[1,2,4]triazolo[1,5-a]pyrimidin-4(7H)-yl)-N-(1-fluorospiro[2.3]hexan-5-yl)acetamide]: more than 5000 nM and 100 to 500 nM.
The matching figures for `CCc1c(N2CCN(C(=O)c3ccccc3C(=O)O)[C@H]3CC[C@@H]32)c(=O)c2nn(-c3ccnc(OC)c3)nc2n1CC(=O)NC12CC(C(C)C)(C1)C2` [I-207, 2-((1S,6S)-5-(5-ethyl-4-(2-((3-isopropylbicyclo[1.1.1]pentan-1-yl)amino)-2-oxoethyl)-2-(2-methoxypyridin-4-yl)-7-oxo-4,7-dihydro-2H-[1,2,3]triazolo[4,5-b]pyridin-6-yl)-2,5-diazabicyclo[4.2.0]octane-2-carbonyl)benzoic acid]: more than 5000 nM and 5 to 50 nM.
As to `CCc1c(N2CCN(C(=O)c3c(OC)ncc(C4CCOC4)c3O)CC2)c(=O)c2nn(-c3ccnc(OC)c3)nc2n1CC(=O)NC12CC(C(C)C)(C1)C2` (single isomer, unassigned) [I-64], the EC50 in assay [1] was 500 to 2000 nM. Further, the IC50 in assay [2] lay in the range of 5 to 50 nM.
Consider `CCc1c(N2CCN(C(=O)c3c(OC)ncc(C)c3O)[C@H]3CC[C@@H]32)c(=O)c2nc(N(C)C)cnc2n1CC(=O)NC12CC(C3CC3)(C1)C2` [I-233, N-(3-cyclopropylbicyclo[1.1.1]pentan-1-yl)-2-(2-(dimethylamino)-6-ethyl-7-((1S,6S)-5-(4-hydroxy-2-methoxy-5-methylnicotinoyl)-2,5-diazabicyclo[4.2.0]octan-2-yl)-8-oxopyrido[2,3-b]pyrazin-5(8H)-yl)acetamide], for which the EC50 in assay [1] fell in the range of 500 to 2000 nM. Further, in assay [2], the IC50 was 5 to 50 nM.
The matching figures for `CCc1c(N2CCN(C(=O)c3cnn(C)c3)CC2)c(=O)n2nc(-c3ccnc(OC)c3)nc2n1CC(=O)NC1(C(O)c2ccccc2)CC1` (stereo not drawn) [I-250, 2-(5-ethyl-2-(2-methoxypyridin-4-yl)-6-(4-(1-methyl-1H-pyrazole-4-carbonyl)piperazin-1-yl)-7-oxo-[1,2,4]triazolo[1,5-a]pyrimidin-4(7H)-yl)-N-(1-(hydroxy(phenyl)methyl)cyclopropyl)acetamide]: more than 5000 nM and 100 to 500 nM.
